# Test results: patent US20080261970A1, “Sufonamides and Uses Thereof” (ELIXIR PHARMACEUTICALS, INC., priority 2004, published 2008)
# No end group written: not given here.
# Test system: mice
# Experiment: fast refeed (fast-refeeding) assay
# Assay type: in vivo
# Experimental: In vivo assays. Exemplary in vivo assays include the fast-refeeding assay described in Example 1 and as follows.
# Food is removed at 6 pm for an overnight (˜16 hour) fast. Beginning at 10 am on the next morning, mice are administered with either vehicle (e.g., saline+acetic acid, pH=5) or the compound of interest. Mice are then returned to their home cages and pre-weighed food (approximately 90 grams) is immediately returned to the food hoppers in each cage. The weight of the food remaining in the food hoppers is measured at 30 minutes, 1 hour, 2 hours, and 4 hours post compound/vehicle administration. Final body weights are then recorded for the mice.
substance,measurement,value
"substance P (RPKPQQFFGLM; ends and bridges not checked; UniProt P20366 58-68, looked up)",feeding activity,alters feeding activity
